Read-outs that look alike come from different tables or passages of the source.
How the values were obtained:
Format in all cases: in vivo
[1] = system: Myzus persicae; conditions: 0.8 g/ha, single active compound
Description: (§1) If the actual insecticidal or acaricidal kill rate exceeds the calculated value, the kill of the combination is superadditive, i.e. a synergistic effect is present. In this case, the actually observed kill rate must exceed the value calculated using the above formula for the expected kill rate (E).
(§2) • Solvents: 78 parts by weight of acetone 1.5 parts by weight of dimethylformamide • Emulsifier: 0.5 part by weight of alkylaryl polyglycol ether
After the desired period of time, the kill in % is determined 100% means that all of the aphids have been killed; 0% means that none of the aphids have been killed. The kill rates determined are entered into Colby's formula (see above).

[2] = system: Phaedon cochleariae
Description: as §1, §2
After the desired period of time, the kill in % is determined 100% means that all beetle larvae have been killed; 0% means that none of the beetle larvae have been killed. The kill rates determined are entered into Colby's formula (see above).

[3] = system: Spodoptera frugiperda; test: Spodoptera frugiperda test (sprayed cabbage leaves); conditions: single active compound
Description: The expected action for a given combination of two active compounds can be calculated according to S. R. Colby, Weeds 15 (1967), 20-22, as follows:
as §1, §2
To produce a suitable preparation of active compound, 1 part by weight of active compound is mixed with the stated amount of solvent and emulsifier, and the concentrate is diluted with emulsifier-containing water to the desired concentration.
Cabbage leaves (Brassica oleracea) are treated by being sprayed with the preparation of active compound of the desired concentration and are populated with larvae of the armyworm (Spodoptera frugiperda) while the leaves are still moist.
After the desired period of time, the kill in % is determined 100% means that all caterpillars have been killed; 0% means that none of the caterpillars have been killed. The kill rates determined are entered into Colby's formula (see above).

[4] = 20 g/ha, single active compound
[5] = 20 g/ha, after 6 d, single active compound
[6] = 4 g/ha, after 6 d, single active compound
[7] = 100 g/ha, after 6 d, single active compound

Row | Compound | Kill in % after 6 d [1] [%] | Kill In % after 2d ([2]; 4 g/ha, single active compound) [%] | Kill In % after 2d [2, 4] [%] | Kill in % after 6 d ([3]; 4 g/ha) [%] | Kill In % after 6d [2, 5] [%] | Kill in % after 6 d ([3]; 20 g/ha) [%] | Kill In % after 6d [2, 7] [%] | other results
1 | methiocarb | 0 | 17 |  |  |  |  |  | 
2 | CCCSP(=O)(OCC)SCCC [ethoprofos, ethoprophos] |  |  |  |  |  |  |  | Kill In % after 6d ([2]; in vivo): 0%
3 | CCOP(=S)(OCC)Oc1nc(Cl)c(Cl)cc1Cl [chlorpyriphos, chlorpyrifos] |  | 0 | 50 | 67 |  |  |  | 
4 | CN(Cc1cnc(Cl)c(F)c1)C1=CC(=O)OC1 [compound (I-6), 4-{[(6-chloro-5-fluoropyrid-3-yl)methyl](methyl)amino}furan-2(5H)-one] | 80 |  | 0 | 0 | 17 | 0 |  | 
5 | O=C1C=C(N(CCF)Cc2ccc(Cl)nc2)CO1 [compound (I-4), 4-{[(6-chloropyrid-3-yl)methyl](2-fluoroethyl)amino}furan-2(5H)-one] |  | 0 |  |  |  | 0 | 50 | Kill in % after 1d [1]: 20%; Kill In % after 6d [2, 6]: 0%; Kill In % after 2d ([2]; 100 g/ha, single active compound): 50%
6 | COP(N)(=O)SC (stereo not drawn) [methamidophos] | 0 |  |  |  |  | 67 |  | 
7 | O=C1C=C(N(Cc2ccc(Cl)nc2)CC(F)F)CO1 [compound (I-5), 4-{[(6-chloropyrid-3-yl)methyl](2,2-difluoroethyl)amino}furan-2(5H)-one] |  |  | 17 | 0 |  |  | 67 | Kill In % after 6d [2, 6]: 0%
8 | CCOP(=O)(NC(C)C)Oc1ccc(SC)c(C)c1 (stereo not drawn) [fenamiphos] | 0 |  |  |  |  |  |  | 
9 | CS/C(C)=N/OC(=O)N(C)SN(C)C(=O)O/N=C(\C)SC [thiodicarb] | 0 |  |  | 50 | 0 | 83 | 0 | Kill in % after 1d [1]: 0%
10 | COP(=O)(NC(C)=O)SC (stereo not drawn) [acephate] | 0 |  |  |  | 0 |  | 0 | 

Reference: US8846567B2, “Active compound combinations having insecticidal and acaricidal properties” (priority 2009, dated 2014)
